The results in this text go back to patent US20140058103A1, “Inhibitors of PI3K-Delta and Methods of Their Use and Manufacture” (Exelixis, Inc., priority 2010, published 2014).

Where only a bound is given, the exact number is not on record here.

Sequence of PI3K delta (O00329 whole entry): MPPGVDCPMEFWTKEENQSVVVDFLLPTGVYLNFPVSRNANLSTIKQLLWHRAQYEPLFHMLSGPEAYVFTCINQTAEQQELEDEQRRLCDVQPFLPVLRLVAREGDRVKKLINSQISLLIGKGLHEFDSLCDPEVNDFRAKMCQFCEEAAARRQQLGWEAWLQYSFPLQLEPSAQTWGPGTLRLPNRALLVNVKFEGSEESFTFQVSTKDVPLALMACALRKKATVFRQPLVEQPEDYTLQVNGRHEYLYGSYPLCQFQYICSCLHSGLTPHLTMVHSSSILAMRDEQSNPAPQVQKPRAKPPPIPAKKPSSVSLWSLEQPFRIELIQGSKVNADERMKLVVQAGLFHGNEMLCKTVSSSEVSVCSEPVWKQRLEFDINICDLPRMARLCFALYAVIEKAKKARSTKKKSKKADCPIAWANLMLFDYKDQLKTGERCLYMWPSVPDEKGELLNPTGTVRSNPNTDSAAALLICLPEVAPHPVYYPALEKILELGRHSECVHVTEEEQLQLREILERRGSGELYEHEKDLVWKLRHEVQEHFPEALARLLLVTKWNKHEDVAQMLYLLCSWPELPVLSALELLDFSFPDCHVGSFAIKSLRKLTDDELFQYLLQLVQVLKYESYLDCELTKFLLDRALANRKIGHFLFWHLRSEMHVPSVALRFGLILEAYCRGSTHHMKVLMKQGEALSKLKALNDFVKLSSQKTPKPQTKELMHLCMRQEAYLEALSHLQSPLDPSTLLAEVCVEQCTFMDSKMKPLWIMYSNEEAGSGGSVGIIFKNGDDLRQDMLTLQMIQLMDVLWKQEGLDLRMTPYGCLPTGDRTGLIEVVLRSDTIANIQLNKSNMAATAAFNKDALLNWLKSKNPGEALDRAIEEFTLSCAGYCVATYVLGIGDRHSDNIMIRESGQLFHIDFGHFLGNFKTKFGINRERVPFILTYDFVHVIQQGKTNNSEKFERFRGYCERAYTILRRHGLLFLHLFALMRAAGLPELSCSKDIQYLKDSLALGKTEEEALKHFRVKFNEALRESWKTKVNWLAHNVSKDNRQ
Sequence of PI3K delta (P27986 whole entry partner): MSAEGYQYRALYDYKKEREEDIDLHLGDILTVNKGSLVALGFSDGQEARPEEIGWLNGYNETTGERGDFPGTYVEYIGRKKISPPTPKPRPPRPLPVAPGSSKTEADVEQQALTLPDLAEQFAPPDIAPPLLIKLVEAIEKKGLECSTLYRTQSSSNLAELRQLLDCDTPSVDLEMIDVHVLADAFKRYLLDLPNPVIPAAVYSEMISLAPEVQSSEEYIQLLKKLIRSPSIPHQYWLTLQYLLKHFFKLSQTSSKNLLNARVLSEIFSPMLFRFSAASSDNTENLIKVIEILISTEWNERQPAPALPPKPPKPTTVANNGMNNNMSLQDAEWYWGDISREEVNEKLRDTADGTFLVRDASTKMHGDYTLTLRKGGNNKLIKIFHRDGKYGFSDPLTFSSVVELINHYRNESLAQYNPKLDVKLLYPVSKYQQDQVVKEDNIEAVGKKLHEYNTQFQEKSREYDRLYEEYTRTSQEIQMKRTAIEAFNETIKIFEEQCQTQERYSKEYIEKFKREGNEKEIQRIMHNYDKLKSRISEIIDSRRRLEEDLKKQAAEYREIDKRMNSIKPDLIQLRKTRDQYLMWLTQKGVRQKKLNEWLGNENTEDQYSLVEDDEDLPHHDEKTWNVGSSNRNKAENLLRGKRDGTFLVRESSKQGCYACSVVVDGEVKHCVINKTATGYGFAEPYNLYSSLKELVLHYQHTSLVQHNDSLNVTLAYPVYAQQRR

The target in the assay is PI3K delta (Homo sapiens, UniProt O00329). Put plainly: Luciferase-coupled chemiluminescence kinase assay (ATP consumption, KinaseGlo). Type of assay: biochemical. Here is the method: Kinase activity and compound inhibition were investigated using one or more of the assay formats described below. The ATP concentrations used in the various assays were approximately equal to or less than the KM for each of the respective kinases. Dose-response experiments were performed using an intra-plate dilution scheme with 10 different inhibitor concentrations in a 384-well microtiter plate. IC50 values were calculated by nonlinear regression analysis using the four-parameter equation listed below:
Y=min+(max−min)/(1+(X/IC50)^N) Equation 1
Typically N should approximate unity. Curve fitting was performed using XLFit or ActivityBase.
Kinase activity is measured as the percent of ATP consumed following the kinase reaction using luciferase-luciferin-coupled chemiluminescence. […] Kinase reactions were initiated by combining test compounds, kinase, and ATP in a 20 μL volume (6 μL volume for 1536-well plate). The reaction mixture was incubated at ambient temperature for 2 h. Following the kinase reaction, a 20 μL (or […] for 1536-well plate) aliquot of KinaseGlo (Promega) was added and the chemiluminescence signal measured using an EnVision plate reader (Perkin Elmer).
(In general: Kinase-Glo measures the ATP left after a reaction by luminescence.)
The compound `Cn1cc(-c2nc3c(N4CCC(CN)(c5ccccc5)CC4)ncnc3n2C)cn1` [Compound 1, 1-{1-[9-methyl-8-(1-methyl-1H-pyrazol-4-yl)-9H-purin-6-yl]-4-phenylpiperidin-4-yl}methanamine] returned an IC50 of 500 to 1500 nM.

`Cc1nc(-c2ccccc2)n(OCC2CCN(c3ncnc4c3nc(-c3cnn(C)c3)n4C)CC2)c1C` [Compound 2, 6-(4-(((4,5-Dimethyl-2-phenyl-1H-imidazol-1-yl)oxy)methyl)piperidin-1-yl)-9-methyl-8-(1-methyl-M-pyrazol-4-yl)-9H-purine] came in with a concentration for half-maximal inhibition (IC50) of 500 to 1500 nM.

For `Cn1c(C(=O)NCC2CC2)nc2c(N3CCC(O)(c4ccccc4)CC3)ncnc21` [Compound 3, N-(cyclopropylmethyl)-6-(4-hydroxy-4-phenylpiperidin-1-yl)-9-methyl-9H-purine-8-carboxamide], the IC50 was in the range of 50 to 250 nM.

On to `Cn1c(C(=O)NCC2CCOCC2)nc2c(N3CCC(n4c(=O)[nH]c5ccccc54)CC3)ncnc21` [Compound 5, 9-methyl-6-[4-(2-oxo-2,3-dihydro-1H-benzimidazol-1-yl)piperidin-1-yl]-N-(tetrahydro-2H-pyran-4-ylmethyl)-9H-purine-8-carboxamide], for which the IC50 is less than 50 nM.

In turn, `Cn1c(C(=O)NCC2CC2)nc2c(N3CCC4(CC3)C(=O)Nc3ccccc34)ncnc21` [Compound 6, N-(Cyclopropylmethyl)-9-methyl-6-(2-oxo-1,2-dihydro-1′H-spiro[indole-3,4′-piperidin]-1′-yl)-9H-purine-8-carboxamide] gave an IC50 of 50 to 250 nM.

`CN(C)C(=O)c1nc2c(N3CCC4(CC3)C(=O)NCN4c3ccccc3)ncnc2n1C` [Compound 7, N,N,9-Trimethyl-6-(4-oxo-1-phenyl-1,3,8-triazaspiro[4.5]dec-8-yl)-9H-purine-8-carboxamide] came in with an IC50 of 500 to 1500 nM.

On to `Cn1c(C(=O)N2CCCC2)nc2c(N3CCC4(CC3)C(=O)NCN4c3ccccc3)ncnc21` [Compound 8, 8-[9-methyl-8-(pyrrolidin-1-ylcarbonyl)-9H-purin-6-yl]-1-phenyl-1,3,8-triazaspiro[4.5]decan-4-one], for which the IC50 is 250 to 500 nM.

On to `Cn1c(C(=O)N2CCCCC2)nc2c(N3CCC4(CC3)C(=O)NCN4c3ccccc3)ncnc21` [Compound 9, 8-[9-methyl-8-(piperidin-1-ylcarbonyl)-9H-purin-6-yl]-1-phenyl-1,3,8-triazaspiro[4.5]decan-4-one], for which the IC50 was in the range of 50 to 250 nM.

Compound `CN(C)C1CN(C(=O)c2nc3c(N4CCC5(CC4)C(=O)NCC5c4ccccc4)ncnc3n2C)C1` (stereo not drawn) [Compound 10] had an IC50 of 500 to 1500 nM.

For `Cn1c(C(=O)NCC2CCCOC2)nc2c(N3CCC(n4c(=O)[nH]c5ccccc54)CC3)ncnc21` (stereo not drawn) [Compound 11, 9-methyl-6-[4-(2-oxo-2,3-dihydro-1H-benzimidazol-1-yl)piperidin-1-yl]-N-(tetrahydro-2H-pyran-3-ylmethyl)-9H-purine-8-carboxamide], the IC50 was in the range of 250 to 500 nM.

The compound `Cn1c(C(=O)NCC2(O)CC2)nc2c(N3CCC(n4c(=O)[nH]c5ccccc54)CC3)ncnc21` [Compound 12, N-[(1-hydroxycyclopropyl)methyl]-9-methyl-6-[4-(2-oxo-2,3-dihydro-1H-benzimidazol-1-yl)piperidin-1-yl]-9H-purine-8-carboxamide] came in with an IC50 of 50 to 250 nM.

Consider `Cn1c(C(=O)NCCCCO)nc2c(N3CCC4(CC3)C(=O)Nc3ccccc34)ncnc21` [Compound 13, N-(4-hydroxybutyl)-9-methyl-6-(2-oxo-1,2-dihydro-1′H-spiro[indole-3,4′-piperidin]-1′-yl)-9H-purine-8-carboxamide], for which the IC50 fell in the range of 50 to 250 nM.

In turn, `Cn1c(C(=O)NC2CC2)nc2c(N3CCC4(CC3)C(=O)Nc3ccccc34)ncnc21` [Compound 14, N-cyclopropyl-9-methyl-6-(2-oxo-1,2-dihydro-1′H-spiro[indole-3,4′-piperidin]-1′-yl)-9H-purine-8-carboxamide] showed an IC50 of 50 to 250 nM.

The compound `Cn1c(C(=O)NC2CCC2)nc2c(N3CCC4(CC3)C(=O)Nc3ccccc34)ncnc21` [Compound 15, N-cyclobutyl-9-methyl-6-(2-oxo-1,2-dihydro-1′H-spiro[indole-3,4′-piperidin]-1′-yl)-9H-purine-8-carboxamide] came in with an IC50 of 50 to 250 nM.

Consider `CCCCNC(=O)c1nc2c(N3CCC4(CC3)C(=O)Nc3ccccc34)ncnc2n1C` [Compound 16, N-butyl-9-methyl-6-(2-oxo-1,2-dihydro-1′H-spiro[indole-3,4′-piperidin]-1′-yl)-9H-purine-8-carboxamide], for which the IC50 fell in the range of 50 to 250 nM.

Compound `Cn1c(C(=O)NCc2ccco2)nc2c(N3CCC4(CC3)C(=O)Nc3ccccc34)ncnc21` [Compound 17, N-(furan-2-ylmethyl)-9-methyl-6-(2-oxo-1,2-dihydro-1′H-spiro[indole-3,4′-piperidin]-1′-yl)-9H-purine-8-carboxamide] gave an IC50 of 50 to 250 nM.

In the case of `Cn1c(C(=O)NC2CCc3ccccc32)nc2c(N3CCC4(CC3)C(=O)Nc3ccccc34)ncnc21` (stereo not drawn) [Compound 18, N-(2,3-dihydro-1H-inden-1-yl)-9-methyl-6-(2-oxo-1,2-dihydro-1′H-spiro[indole-3,4′-piperidin]-1′-yl)-9H-purine-8-carboxamide], the IC50 lay in the range of 250 to 500 nM.

On to `Cn1c(C(=O)NCCCO)nc2c(N3CCC4(CC3)C(=O)Nc3ccccc34)ncnc21` [Compound 19, N-(3-hydroxypropyl)-9-methyl-6-(2-oxo-1,2-dihydro-1′H-spiro[indole-3,4′-piperidin]-1′-yl)-9H-purine-8-carboxamide], for which the IC50 lay within 50 to 250 nM.

Compound `Cn1c(C(=O)NCc2cccs2)nc2c(N3CCC4(CC3)C(=O)Nc3ccccc34)ncnc21` [Compound 20, 9-methyl-6-(2-oxo-1,2-dihydro-1′H-spiro[indole-3,4′-piperidin]-1′-yl)-N-(2-thienylmethyl)-9H-purine-8-carboxamide] gave a half-inhibitory concentration (IC50) of 50 to 250 nM.

Take `Cn1c(C(=O)NCCc2ccccn2)nc2c(N3CCC4(CC3)C(=O)Nc3ccccc34)ncnc21` [Compound 21, 9-methyl-6-(2-oxo-1,2-dihydro-1′H-spiro[indole-3,4′-piperidin]-1′-yl)-N-(2-pyridin-2-ylethyl)-9H-purine-8-carboxamide]: the 50% inhibitory concentration (IC50) lay within 500 to 1500 nM.

In turn, `Cn1c(C(=O)NCc2ccncc2)nc2c(N3CCC4(CC3)C(=O)Nc3ccccc34)ncnc21` [Compound 22, 9-methyl-6-(2-oxo-1,2-dihydro-1′H-spiro[indole-3,4′-piperidin]-1′-yl)-N-(pyridin-4-ylmethyl)-9H-purine-8-carboxamide] registered an IC50 of 50 to 250 nM.

Compound `CC(NC(=O)c1nc2c(N3CCC4(CC3)C(=O)Nc3ccccc34)ncnc2n1C)c1ccccc1` (stereo not drawn) [Compound 23, 9-methyl-6-(2-oxo-1,2-dihydro-1′H-spiro[indole-3,4′-piperidin]-1′-yl)-N-(1-phenylethyl)-9H-purine-8-carboxamide] yielded an IC50 of 500 to 1500 nM.

For the compound `CC(C)NC(=O)c1nc2c(N3CCC4(CC3)C(=O)Nc3ccccc34)ncnc2n1C` [Compound 24, 9-methyl-N-(1-methylethyl)-6-(2-oxo-1,2-dihydro-1′H-spiro[indole-3,4′-piperidin]-1′-yl)-9H-purine-8-carboxamide], the IC50 lay in the range of 50 to 250 nM.

`Cn1c(C(=O)NCCO)nc2c(N3CCC4(CC3)C(=O)Nc3ccccc34)ncnc21` [Compound 25, N-(2-hydroxyethyl)-9-methyl-6-(2-oxo-1,2-dihydro-1′H-spiro[indole-3,4′-piperidin]-1′-yl)-9H-purine-8-carboxamide] displayed an IC50 of 250 to 500 nM.

Compound `COc1ccccc1CNC(=O)c1nc2c(N3CCC4(CC3)C(=O)Nc3ccccc34)ncnc2n1C` [Compound 26, 9-methyl-N-([2-(methyloxy)phenyl]methyl)-6-(2-oxo-1,2-dihydro-1′H-spiro[indole-3,4′-piperidin]-1′-yl)-9H-purine-8-carboxamide] came in with an IC50 of 500 to 1500 nM.

For `Cc1ccccc1CNC(=O)c1nc2c(N3CCC4(CC3)C(=O)Nc3ccccc34)ncnc2n1C` [Compound 27, 9-methyl-N-[(2-methylphenyl)methyl]-6-(2-oxo-1,2-dihydro-1′H-spiro[indole-3,4′-piperidin]-1′-yl)-9H-purine-8-carboxamide], the IC50 was in the range of 500 to 1500 nM.

`Cn1c(C(=O)NCc2cccc(F)c2)nc2c(N3CCC4(CC3)C(=O)Nc3ccccc34)ncnc21` [Compound 28, N-[(3-fluorophenyl)methyl]-9-methyl-6-(2-oxo-1,2-dihydro-1′H-spiro[indole-3,4′-piperidin]-1′-yl)-9H-purine-8-carboxamide]: the IC50 is 250 to 500 nM.

As to `COc1ccc(CNC(=O)c2nc3c(N4CCC5(CC4)C(=O)Nc4ccccc45)ncnc3n2C)cc1` [Compound 29, 9-methyl-N-([4-(methyloxy)phenyl]methyl)-6-(2-oxo-1,2-dihydro-1′H-spiro[indole-3,4′-piperidin]-1′-yl)-9H-purine-8-carboxamide], the IC50 lay within 500 to 1500 nM.

The compound `Cn1c(C(=O)NCC(F)(F)F)nc2c(N3CCC4(CC3)C(=O)Nc3ccccc34)ncnc21` [Compound 30, 9-methyl-6-(2-oxo-1,2-dihydro-1′H-spiro[indole-3,4′-piperidin]-1′-yl)-N-(2,2,2-trifluoroethyl)-9H-purine-8-carboxamide] yielded an IC50 of less than 50 nM.

Regarding `CC(CNC(=O)c1nc2c(N3CCC4(CC3)C(=O)Nc3ccccc34)ncnc2n1C)c1ccccc1` (stereo not drawn) [Compound 31, 9-methyl-6-(2-oxo-1,2-dihydro-1′H-spiro[indole-3,4′-piperidin]-1′-yl)-N-(2-phenylpropyl)-9H-purine-8-carboxamide], the IC50 lay in the range of 500 to 1500 nM.

As usually defined, the IC50 is the concentration at which inhibition is half-maximal. Read a high IC50 as weaker potency.
